Test results from patent EP0970046B1, “N-HYDROXY-2-(ALKYL, ARYL, OR HETEROARYL SULFANYL, SULFINYL OR SULFONYL)-3-SUBSTITUTED ALKYL, ARYL OR HETEROARYLAMIDES AS MATRIX METALLOPROTEINASE INHIBITORS” (Wyeth Holdings Corporation, priority 1997, dated 1998).
Like-named read-outs stand apart in the source and are kept apart here.

Columns and labels:
Format in all cases: biochemical
MMP 13 = MMP 13 (Homo sapiens, UniProt P45452); test: MMP 13 inhibition (IC50 / manual assay; method not described); conditions: for inhibition at 1 µM: read-out: MMP 13 % inhibition at 1 micromolar
MMP 9 = molecular target: T1, MMP 9 (Homo sapiens, UniProt P14780); test: In Vitro Gelatinase Assay; conditions: human neutrophil gelatinase B; for IC50: read-out: MMP 9 IC 50; for inhibition at 1 µM: read-out: MMP 9 % inhibition at 1 micromolar, 1 micromolar
T1 construct: from tissue; host or cells: human neutrophils
In short: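 Human MMP-9 cleaves thiopeptide Ac-Pro-Leu-Gly(2-mercapto-4-methyl-pentanoyl)-Leu-Gly-OEt, with the released thiol reacting with DTNB. Substrate and DTNB were diluted together to 1 mM in 50 mM HEPES pH 7.5, 5 mM CaCl2. Rate came from the OD405 slope (r^2 >0.85), compared with control by Dunnett's test.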

MMP 1 = molecular target: T2, MMP 1 (Homo sapiens, UniProt P03956); test: In Vitro Collagenase Assay; conditions: human recombinant fibroblast collagenase; for IC50: read-out: MMP 1 IC 50; for inhibition at 1 µM: read-out: MMP 1 % inhibition at 1 micromolar, 1 micromolar
T2 construct: human recombinant fibroblast collagenase (truncated, mw= 18,828, WAR, Radnor)
T2 sequence (P03956 100-269 limits assumed): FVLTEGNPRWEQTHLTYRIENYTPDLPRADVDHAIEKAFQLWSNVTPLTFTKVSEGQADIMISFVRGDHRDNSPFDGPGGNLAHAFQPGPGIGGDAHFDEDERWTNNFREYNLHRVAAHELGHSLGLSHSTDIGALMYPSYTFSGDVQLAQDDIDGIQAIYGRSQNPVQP
In short: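 Collagenase (5 nM final) cleaves the quenched fluorogenic peptide Dnp-Pro-Cha-Gly-Cys(Me)-His-Ala-Lys(NMa)-NH2 (10 µM final) in HCBC buffer. Solvent is below 1.0%, and the reaction is started with substrate. Rate is taken from the fluorescence slope (r^2 >0.85), and drug-treated rates are compared with control by Dunnett's test.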

TACE = molecular target: T3, TACE (Homo sapiens, UniProt P78536); test: Procedure for Measuring TACE Inhibition; conditions: for inhibition at 1 µM: read-out: TACE % inhibition at 1 micromolar; for IC50: read-out: TACE IC 50
T3 construct: purchased Immunex
In short: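 Single-concentration screen: test compound at 1 µM final, 10-min room-temperature preincubation with 1 µg/mL protease in Tris pH 7.4 buffer containing glycerol. Initial rate from linear fluorescence increase (340/420 nm) over 10 min after adding 100 µM peptidyl substrate; significance versus control rate by Dunnett's test.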

T1 sequence (P14780 94-707): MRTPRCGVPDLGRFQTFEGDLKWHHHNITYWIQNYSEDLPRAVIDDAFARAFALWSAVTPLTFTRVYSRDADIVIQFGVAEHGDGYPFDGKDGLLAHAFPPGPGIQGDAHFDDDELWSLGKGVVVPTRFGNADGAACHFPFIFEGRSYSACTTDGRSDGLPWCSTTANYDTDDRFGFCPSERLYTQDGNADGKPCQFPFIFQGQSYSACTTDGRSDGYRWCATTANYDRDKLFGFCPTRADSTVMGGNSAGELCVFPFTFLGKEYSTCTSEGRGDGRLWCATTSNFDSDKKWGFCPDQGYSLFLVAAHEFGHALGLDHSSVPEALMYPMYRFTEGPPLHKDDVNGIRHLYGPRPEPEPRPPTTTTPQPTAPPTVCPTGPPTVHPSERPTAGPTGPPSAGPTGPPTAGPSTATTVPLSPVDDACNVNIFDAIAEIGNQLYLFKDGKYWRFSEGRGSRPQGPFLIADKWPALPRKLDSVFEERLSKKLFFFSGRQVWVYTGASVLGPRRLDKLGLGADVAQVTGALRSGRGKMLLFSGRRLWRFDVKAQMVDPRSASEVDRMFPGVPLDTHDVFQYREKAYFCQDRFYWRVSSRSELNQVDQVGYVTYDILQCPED
T3 sequence (P78536 215-824): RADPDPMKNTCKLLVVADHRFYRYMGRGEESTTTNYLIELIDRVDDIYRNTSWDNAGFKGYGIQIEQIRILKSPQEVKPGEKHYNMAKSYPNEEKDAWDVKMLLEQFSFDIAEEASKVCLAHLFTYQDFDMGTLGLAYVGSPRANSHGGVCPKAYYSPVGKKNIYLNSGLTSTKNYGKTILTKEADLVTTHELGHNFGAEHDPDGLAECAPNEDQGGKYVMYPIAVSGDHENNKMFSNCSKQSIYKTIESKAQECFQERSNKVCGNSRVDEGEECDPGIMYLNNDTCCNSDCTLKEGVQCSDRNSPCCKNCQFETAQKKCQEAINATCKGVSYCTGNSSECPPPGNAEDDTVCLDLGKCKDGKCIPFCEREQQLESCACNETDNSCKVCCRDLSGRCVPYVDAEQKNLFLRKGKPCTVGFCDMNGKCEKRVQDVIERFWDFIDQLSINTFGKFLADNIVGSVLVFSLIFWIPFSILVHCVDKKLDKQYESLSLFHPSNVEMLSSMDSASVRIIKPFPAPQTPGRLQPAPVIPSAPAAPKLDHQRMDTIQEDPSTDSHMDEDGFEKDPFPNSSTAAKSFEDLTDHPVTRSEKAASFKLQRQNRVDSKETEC

Row | SMILES | IC50 (MMP 13; read-out: MMP 13 IC 50) [nM] | IC50 (MMP 9) [nM] | IC50 (MMP 1) [nM] | inhibition at 1 µM (TACE) [%] | IC50 (MMP 13) [nM] | IC50 (TACE) [nM] | inhibition at 1 µM (MMP 13) [%] | inhibition at 1 µM (MMP 9) [%] | inhibition at 1 µM (MMP 1) [%] | MMP 13 % inhibition at 1 micromolar (MMP 13; 1 micromolar) [%]
1 | COc1ccc(S(=O)(=O)C(C)(Cc2ccccc2Br)C(=O)NO)cc1 (stereo not drawn) [Example 55, 3-(2-Bromo-phenyl)-N-hydroxy-2-(4-methoxy-benzenesulfonyl)-2-methyl-propionamide] | 7 | 10 | 303 | 21.7 |  |  |  |  |  | 
2 | COc1ccc(S(=O)(=O)C(C)(CC=Cc2ccccc2)C(=O)NO)cc1 (stereo not drawn) [Example 56, 2-(4-methoxy-benzenesulfonyl)-2-methyl-5-phenyl-pent-4-enoic acid hydroxyamide] |  | 16 | 299 | 65 | 12 |  |  |  |  | 
3 | COc1ccc(S(=O)(=O)C(C)(CC=C(C)CCC=C(C)C)C(=O)NO)cc1 (stereo not drawn) [Example 15, 2-(4-methoxy-benzenesulfonyl)-2,5,9-trimethyl-deca-4,8-dienoic acid hydroxyamide] | 4 | 17 | 285 |  |  | 137 |  |  |  | 
4 | CCC(Cc1ccc(OCCN2CCCCC2)cc1)(C(=O)NO)S(=O)(=O)c1ccc(OC)cc1 (stereo not drawn) [Example 34, N-Hydroxy-2-(4-methoxy-benzenesulfonyl)-2-[4-(2-piperidin-1-yl-ethoxy)-benzyl]-butyramide] | 26.1 | 34.7 | 520 | 28.1 |  |  |  |  |  | 
5 | COc1ccc(S(=O)(=O)C(CCN(C(C)C)C(C)C)(Cc2ccccc2)C(=O)NO)cc1 (stereo not drawn) [Example 64, 2-Benzyl-4-diisopropylamino-N-hydroxy-2-(4-methoxy-benzenesulfonyl)-butyramide] |  |  |  | 29.7 |  |  | 36.7 | 25.6 | 40.9 | 
6 | COc1ccc(S(=O)(=O)C(C)(Cc2cccc(OCCN3CCCCC3)c2)C(=O)NO)cc1 (stereo not drawn) [Example 22, N-Hydroxy-2-(4-methoxy-benzenesulfonyl)-2-methyl-3-[3-(2-piperidin-1-yl-ethoxy)-phenyl]-propionamide] | 2.5 | 3.2 | 219 | 30 |  |  |  |  |  | 
7 | CCC(Cc1ccc(OCCN2CCOCC2)cc1)(C(=O)NO)S(=O)(=O)c1ccc(OC)cc1 (stereo not drawn) [Example 33, N-Hydroxy-2-(4-methoxy-benzenesulfonyl)-2-[4-(2-morpholin-4-yl-ethoxy)-benzyl]-butyramide] | 18.4 | 53.9 | 318 | 23.9 |  |  |  |  |  | 
8 | Cc1occc1S(=O)(=O)C(C)(Cc1ccccc1)C(=O)NO (stereo not drawn) [Example 43, 2-Methyl-2-(2-methyl-furan-3-sulfonyl)-3-phenyl-propionic acid hydroxamide] |  |  |  | 46.6 |  |  | 55.5 | 34.7 | 66.1 | 
9 | COc1ccc(S(=O)(=O)C(CC=C(C)C)(Cc2cccnc2)C(=O)NO)cc1 (stereo not drawn) [Example 63, 2-(4-Methoxy-benzenesulfonyl)-5-methyl-2-pyridin-3-ylmethyl-hex-4-enoic acid hydroxyamide] |  | 9 | 156 |  | 3 | 203 |  |  |  | 
10 | COc1ccc(S(=O)(=O)C2(C(=O)NO)CCN(Cc3ccc(C)cc3)CC2)cc1 [Example 86, 4-(4-methoxy-benzenesulfonyl)-1-(4-methylbenzyl)-piperidine-4-carboxylic acid hydroxamide] | 1.5 | 16.8 | 494 |  |  | 222 |  |  |  | 
11 | COc1ccc(S(=O)(=O)C2(C(=O)NO)CCN(Cc3ccccc3)CC2)cc1 [Example 83, 1-Benzyl-4-(4-methoxy-benzenesulfonyl)-piperidine-4-carboxylic Acid hydroxyamide] | 2 | 10.2 | 492 |  |  | 229 |  |  |  | 
12 | CC(Cc1ccccc1)(C(=O)NO)S(=O)(=O)c1cccs1 (stereo not drawn) [Example 48, 2-Methyl-3-phenyl-2-(thiophene-2-sulfonyl)-propionic acid hydroxamide] |  |  |  | 51.1 |  |  |  | 79.1 | 99.1 | 85.4
